# Like-named read-outs stand apart in the source and are kept apart here.
# Key:
# Type in all cases: in vivo
# [1] = system: Echinochloa crus-galli (ECHCG); test: Test 1 glasshouse assay, pre-emergence herbicidal activity; conditions: 312 h, visual evaluation after 13 days, read-out: Percentage phytotoxicity ECHCG
# Description: (§1) Seeds of a variety of test species are sown in standard soil in pots. After cultivation for one day (pre-emergence) or after 8 days cultivation (post-emergence) under controlled conditions in a glasshouse (at 24/16° C., day/night; 14 hours light; 65% humidity), the plants are sprayed with an aqueous spray solution derived from the formulation of the “technical” (i.e. unformulated) active ingredient in acetone/water (50:50) solution containing 0.5% Tween 20 (polyoxyethylene sorbitan monolaurate, CAS Registry Number 9005-64-5). The test plants are then grown on under controlled conditions in a glasshouse (at 24/16° C., day/night; 14 hours light; 65% humidity) and watered twice daily. After 13 days for pre- or post-emergence, the test is evaluated visually, and an assessed percentage phytotoxicity score is given for each herbicidal application on each plant species (where 100%=total damage to plant; 0%=no damage to plant).
# (§2) Test plants include the following: Abutilon theophrasti (ABUTH), Amaranthus retroflexus (AMARE): these are dicotyledonous (broadleaved) weeds. Setaria faberi (SETFA), Alopecurus myosuroides (ALOMY), Echinochloa crus-galli (ECHCG): these are grassy monocotyledonous weeds. Also: Zea mays (ZEAMX, corn/maize), which can be a grassy weed (“volunteer” corn) in some circumstances.
# [2] = system: Alopecurus myosuroides (ALOMY); test: as above; conditions: 312 h, visual evaluation after 13 days, read-out: Percentage phytotoxicity ALOMY
# Description: as §1, §2
# [3] = system: Beta vulgaris (BEAVA, sugarbeet); test: Test 2 glasshouse assay (IF50 formulation, X-77), post-emergence herbicidal activity; conditions: 360 h, 15 DAA, visual score, read-out: Post-emergence herbicidal activity (percentage phytotoxicity) BEAVA; for plant injury at 125 g/ha: application rate 125 g/ha; for plant injury at 30 g/ha: application rate 30 g/ha
# Description: (§3) Seeds of a variety of monocotyledonous and dicotyledonous test plants are sown in standard soil in pots. The plants are cultivated for one day (for pre-emergence) or for about 12 days (for post-emergence) under controlled conditions in a glasshouse (warm climate species at 24/18° C., cool climate species at 20/16° C., both at day/night; 16 hours light; 65% humidity).
# (§4) An “instant formulation”, known as the “IF50”, containing 50 g/liter (i.e. 5% w/v) of the “technical” (i.e. unformulated) active ingredient is prepared by dissolving the active ingredient in a mixture of organic solvents and emulsifier, details of which are provided in the Table below. This IF50 is then mixed with a small, variable amount of acetone to aid dissolution, before addition of a 0.2% v/v aqueous solution of the adjuvant X-77 (which is a mixture of alkyl aryl polyoxyethylene glycols and free fatty acids in isopropanol, CAS Registry number 11097-66-8), as the aqueous diluent, to form an aqueous spray solution which contains a predetermined concentration of the active ingredient (which varies depending on the application rate of the active ingredient to the plants) and 0.2% v/v of the adjuvant X-77. This aqueous spray solution is then sprayed onto the plants, after one day's cultivation (for pre-emergence), or after about 12 days' cultivation (range=10-13 days) (for post-emergence).
# (§5) The test plants are then grown on, in a glasshouse (greenhouse) under controlled conditions (warm climate species at 24/18° C., cool climate species at 20/16° C., both at day/night; 16 hours light; 65% humidity) and are watered twice daily. 15 days after application of the test herbicide (15DAA) (for post-emergence), and 20 days after application of the test herbicide (20DAA) (for pre-emergence), the test plants are evaluated visually, and an assessed percentage phytotoxicity score is given for each herbicidal application on each plant species (with 100%=total damage to plant; 0%=no damage to plant).
# (§6) Cool climate crop plants: Triticum aestivum (TRZAW, winter wheat), Brassica napus (BRSNN, rape, also called oilseed rape or rapeseed), Beta vulgaris (BEAVA, sugarbeet). Warm climate crop plants: Glycine max (GLXMA, soybean).
# [4] = system: Brassica napus (BRSNN, rape); test: as above; conditions: 360 h, 15 DAA, visual score, read-out: Post-emergence herbicidal activity (percentage phytotoxicity) BRSNN; for plant injury at 125 g/ha: application rate 125 g/ha; for plant injury at 30 g/ha: application rate 30 g/ha
# Description: as §3, §4, §5, §6
# [5] = system: Triticum aestivum (TRZAW, winter wheat); test: as above; conditions: 360 h, 15 DAA, read-out: Post-emergence herbicidal activity (percentage phytotoxicity) TRZAW; for plant injury at 125 g/ha: application rate 125 g/ha; for plant injury at 30 g/ha: application rate 30 g/ha
# Description: as §3, §4, §5, §6
# [6] = system: Glycine max (GLXMA, soybean); test: as above; conditions: 360 h, 15 DAA, visual score, read-out: Post-emergence herbicidal activity (percentage phytotoxicity) GLXMA; for plant injury at 125 g/ha: application rate 125 g/ha; for plant injury at 30 g/ha: application rate 30 g/ha
# Description: as §3, §4, §5, §6
# [7] = system: Echinochloa crus-galli (ECHCG); test: Test 1 glasshouse assay, post-emergence herbicidal activity; conditions: 312 h, after 13 days, read-out: Percentage phytotoxicity ECHCG
# Description: as §1
# (§7) Test plants include the following: Abutilon theophrasti (ABUTH) and Amaranthus retroflexus (AMARE); these are all dicotyledonous (broadleaved) weeds. Setaria faberi (SETFA), Alopecurus myosuroides (ALOMY), and Echinochloa crus-galli (ECHCG); these are all grassy monocotyledonous weeds. Also: Zea mays (ZEAMX, corn/maize), which can be a grassy weed (“volunteer” corn) in some circumstances.
# (§8) Lolium perenne (LOLPE), Alopecurus myosuroides (ALOMY), Echinochloa crus-galli (ECHCG), and Avena fatua (AVEFA); these are all grassy monocotyledonous weeds. Cool climate crop plant: Triticum aestivum (TRZAW, winter wheat).
# [8] = system: Alopecurus myosuroides (ALOMY); test: as above; conditions: 312 h, after 13 days, read-out: Percentage phytotoxicity ALOMY
# Description: as §1, §7, §8
# Setaria faberi (SETFA) = test: Test 1 glasshouse assay, pre-emergence herbicidal activity; conditions: 312 h, visual evaluation after 13 days, read-out: Percentage phytotoxicity SETFA
# Description: as §1, §2
# [9] = system: Amaranthus retroflexus (AMARE); test: as above; conditions: 312 h, visual evaluation after 13 days, read-out: Percentage phytotoxicity AMARE
# Description: as §1, §2
# [10] = post-emergence (Example 1B Table 2)
# [11] = post-emergence (Example 1B Table 1)
Structure (SMILES),pest or weed control at 250 g/ha [1] [%],pest or weed control at 250 g/ha [2] [%],plant injury at 125 g/ha [3] [%],plant injury at 125 g/ha [4] [%],plant injury at 125 g/ha ([5]; visual score) [%],plant injury at 125 g/ha [6] [%],"pest or weed control at 62.5 g/ha [7, 10] [%]","pest or weed control at 250 g/ha [7, 10] [%]","pest or weed control at 62.5 g/ha [8, 10] [%]","pest or weed control at 250 g/ha [8, 10] [%]",pest or weed control at 250 g/ha (Setaria faberi (SETFA)) [%],pest or weed control at 250 g/ha [9] [%],plant injury at 30 g/ha [3] [%],plant injury at 30 g/ha [4] [%],plant injury at 30 g/ha ([5]; visual score) [%],plant injury at 30 g/ha [6] [%],"pest or weed control at 62.5 g/ha [7, 11] [%]","pest or weed control at 250 g/ha [7, 11] [%]","pest or weed control at 62.5 g/ha [8, 11] [%]","pest or weed control at 250 g/ha [8, 11] [%]",also measured
C#CCC1CC(=O)C(c2c(C)cc(C)cc2C)C1=O (centres unmarked) [Compound A23],100,100,30,70,20,0,100,100,90,100,,,,,,,,,,,
"C#CCC1CC(=O)C(c2c(C)cc(-c3ccc(F)cc3)cc2C)C1=O (centres unmarked) [Compound A1, 2-[4-(4-fluorophenyl)-2,6-dimethyl-phenyl]-4-prop-2-ynylcyclopentane-1,3-dione]",100,100,70,70,80,0,,,,,90,80,70,70,80,0,100,100,90,100,
C#CCC1CC(OC(C)=O)=C(c2c(C)cc(-c3ccc(F)cc3)cc2C)C1=O (centres unmarked) [Compound A45],100,100,70,80,80,10,,,,,60,90,70,50,80,0,100,100,90,100,
C#CCC1CC(=O)C(c2cc(-c3ccc(Cl)cc3Cl)ccc2C)C1=O (centres unmarked) [Compound A15],,,,,,,,,,,,,,,,,,70,,10,"plant injury at 250 g/ha ([3]; application rate 250 g/ha): 40%; plant injury at 250 g/ha ([4]; application rate 250 g/ha): 60%; plant injury at 250 g/ha ([5]; application rate 250 g/ha, visual score): 10%; plant injury at 250 g/ha ([6]; application rate 250 g/ha): 10%"
"C#CCC1CC(=O)C(c2c(CC)cc(C)cc2CC)C1=O (centres unmarked) [Compound A25, 2-(2,6-diethyl-4-methyl-phenyl)-4-(prop-2-ynyl)-cyclopentane-1,3-dione]",100,100,0,20,60,0,100,100,90,100,,,0,0,10,0,,,,,
C#CCC1C(=O)C(c2c(C)cc(C)cc2C)C(=O)C1CC#C (centres unmarked) [Compound A42],80,100,0,20,0,10,,100,,90,,,,,,,,,,,"plant injury at 500 g/ha ([3]; application rate 500 g/ha): 30%; plant injury at 500 g/ha ([4]; application rate 500 g/ha): 80%; plant injury at 500 g/ha ([5]; application rate 500 g/ha, visual score 100%=total damage, 0%=no damage): 10%; plant injury at 500 g/ha ([6]; application rate 500 g/ha): 10%"

# Reference: US10375956B2, “Herbicidally active 2-(substituted-phenyl)-cyclopentane-1,3-dione compounds and derivatives thereof” (Syngenta Limited, priority 2013, dated 2019)
